Test results reported in PubChem BioAssay (NCI).
Values joined by “and” are separate entries in the source; they are usually repeats but may differ in a detail not shown here. Identical values can stand only once.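 Grown in 96-well plates, cells were treated for 48 hours with each compound at five concentrations. Insufficient inhibition: endpoint recorded as highest concentration tested. Here, GI50 denotes the concentration required for 50% inhibition of growth. TGI: concentration producing complete growth inhibition.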

Legend:
Assay in all cases: NCI-60 cell line screen, 48 h; in the data active = GI50 below about 0.43 µM; inactive = the rest
OVCAR-5 ovarian = tested on: OVCAR-5 ovarian
786-0 renal = tested on: 786-0 renal
MCF7 breast = tested on: MCF7 breast
MDA-MB-231 breast = tested on: MDA-MB-231 breast
DU-145 prostate = tested on: DU-145 prostate
HOP-62 NSCLC = tested on: HOP-62 NSCLC
SN12C renal = tested on: SN12C renal
HCT-116 colon = tested on: HCT-116 colon
NCI/ADR-RES ovarian = tested on: NCI/ADR-RES ovarian
KM12 colon = tested on: KM12 colon
SNB-19 CNS = tested on: SNB-19 CNS
SW-620 colon = tested on: SW-620 colon
PC-3 prostate = tested on: PC-3 prostate
K-562 leukemia = tested on: K-562 leukemia
SK-OV-3 ovarian = tested on: SK-OV-3 ovarian
HS 578T breast = tested on: HS 578T breast
LOX IMVI melanoma = tested on: LOX IMVI melanoma
SK-MEL-2 melanoma = tested on: SK-MEL-2 melanoma
A549 NSCLC = tested on: A549 NSCLC
SK-MEL-5 melanoma = tested on: SK-MEL-5 melanoma
EKVX NSCLC = tested on: EKVX NSCLC
UACC-257 melanoma = tested on: UACC-257 melanoma
SF-539 CNS = tested on: SF-539 CNS
A498 renal = tested on: A498 renal
U251 CNS = tested on: U251 CNS
RXF 393 renal = tested on: RXF 393 renal
OVCAR-4 ovarian = tested on: OVCAR-4 ovarian
HL-60(TB) leukemia = tested on: HL-60(TB) leukemia
COLO 205 colon = tested on: COLO 205 colon
RPMI-8226 leukemia = tested on: RPMI-8226 leukemia
SF-268 CNS = tested on: SF-268 CNS
MDA-MB-435 = tested on: MDA-MB-435
MALME-3M melanoma = tested on: MALME-3M melanoma
UACC-62 melanoma = tested on: UACC-62 melanoma
HCT-15 colon = tested on: HCT-15 colon
NCI-H522 lung = tested on: NCI-H522 lung
SK-MEL-28 melanoma = tested on: SK-MEL-28 melanoma
TK-10 renal = tested on: TK-10 renal
SNB-75 CNS = tested on: SNB-75 CNS
UO-31 renal = tested on: UO-31 renal
NCI-H226 lung = tested on: NCI-H226 lung
OVCAR-8 ovarian = tested on: OVCAR-8 ovarian
HCC-2998 colon = tested on: HCC-2998 colon
IGROV1 ovarian = tested on: IGROV1 ovarian
SR leukemia = tested on: SR leukemia
ACHN renal = tested on: ACHN renal
HOP-92 NSCLC = tested on: HOP-92 NSCLC
M14 melanoma = tested on: M14 melanoma
NCI-H23 lung = tested on: NCI-H23 lung
HT29 colon = tested on: HT29 colon
SF-295 CNS = tested on: SF-295 CNS
NCI-H460 lung = tested on: NCI-H460 lung
MOLT-4 leukemia = tested on: MOLT-4 leukemia
BT-549 breast = tested on: BT-549 breast
T-47D breast = tested on: T-47D breast
CCRF-CEM leukemia = tested on: CCRF-CEM leukemia
OVCAR-3 ovarian = tested on: OVCAR-3 ovarian
CAKI-1 renal = tested on: CAKI-1 renal

O=C(NOC[C@H](O)CO)c1ccc(F)c(F)c1Nc1ccc(I)cc1F
> 100 µM: TGI (OVCAR-5 ovarian) | TGI (786-0 renal) | TGI (MCF7 breast) | TGI (DU-145 prostate) | TGI (HOP-62 NSCLC) | TGI (SN12C renal) | TGI (HCT-116 colon) | TGI (NCI/ADR-RES ovarian) | TGI (KM12 colon) | TGI (SNB-19 CNS) | TGI (SW-620 colon) | TGI (PC-3 prostate) | TGI (K-562 leukemia) | TGI (SK-OV-3 ovarian) | TGI (HS 578T breast) | TGI (A549 NSCLC) | TGI (SK-MEL-5 melanoma) | TGI (EKVX NSCLC) | TGI (SF-539 CNS) | TGI (U251 CNS) | TGI (OVCAR-4 ovarian) | TGI (HL-60(TB) leukemia) | TGI (COLO 205 colon) | TGI (RPMI-8226 leukemia) | TGI (SF-268 CNS) | TGI (MDA-MB-435) | TGI (HCT-15 colon) | TGI (NCI-H522 lung) | TGI (SNB-75 CNS) | TGI (NCI-H226 lung) | TGI (OVCAR-8 ovarian) | TGI (IGROV1 ovarian) | TGI (SR leukemia) | TGI (ACHN renal) | TGI (NCI-H23 lung) | TGI (HT29 colon) | TGI (SF-295 CNS) | TGI (NCI-H460 lung) | TGI (MOLT-4 leukemia) | TGI (T-47D breast) | TGI (CCRF-CEM leukemia) | TGI (OVCAR-3 ovarian) | TGI (CAKI-1 renal)
86.2 µM and > 10 µM: TGI (TK-10 renal)
< 0.01 µM and 0.00947 µM: TGI (UACC-257 melanoma)
62.7 µM and > 10 µM: TGI (MDA-MB-231 breast)
19.9 µM and > 6.5 µM: TGI (LOX IMVI melanoma)
2.24 µM: TGI (HCC-2998 colon)
inactive: GI50 (786-0 renal) 21.6 µM and > 10 µM | GI50 (MCF7 breast) > 76.5 µM | GI50 (DU-145 prostate) 11.3 µM and 1.67 µM | GI50 (NCI/ADR-RES ovarian) 12.3 µM and 6.3 µM | GI50 (SNB-19 CNS) 20.6 µM | GI50 (PC-3 prostate) 62.6 µM and > 10 µM | GI50 (HS 578T breast) 34.5 µM and > 2.97 µM | GI50 (SK-MEL-5 melanoma) 4.17 µM and > 10 µM | GI50 (SF-539 CNS) 15.8 µM and > 10 µM | GI50 (U251 CNS) 1.05 µM and 0.662 µM | GI50 (OVCAR-4 ovarian) 8.76 µM and > 10 µM | GI50 (RPMI-8226 leukemia) 35.9 µM and > 10 µM | GI50 (SF-268 CNS) 25.6 µM and > 2.28 µM | GI50 (HCT-15 colon) 2.73 µM and 0.919 µM | GI50 (SNB-75 CNS) 17.8 µM and > 10 µM | GI50 (NCI-H226 lung) 0.717 µM and 1.43 µM | GI50 (OVCAR-8 ovarian) 21.7 µM and > 7.5 µM | GI50 (SR leukemia) > 10 µM | GI50 (SF-295 CNS) 14.5 µM and > 10 µM | GI50 (NCI-H460 lung) 15 µM and > 3.36 µM | GI50 (MOLT-4 leukemia) 57.9 µM and > 10 µM | GI50 (BT-549 breast) 10.8 µM and > 10 µM | GI50 (T-47D breast) 51.5 µM and > 4.02 µM | GI50 (CCRF-CEM leukemia) > 100 µM | GI50 (OVCAR-3 ovarian) 37.6 µM and > 10 µM
0.946 µM and 0.1 µM: GI50 (A549 NSCLC)
0.0969 µM: TGI (M14 melanoma)
< 0.01 µM and 0.00323 µM: TGI (MALME-3M melanoma)
0.613 µM and 0.43 µM: TGI (HOP-92 NSCLC)
active: GI50 (OVCAR-5 ovarian) < 0.01 µM and 0.0036 µM | GI50 (MDA-MB-231 breast) 0.16 µM and 0.0347 µM | GI50 (HOP-62 NSCLC) 0.00599 µM | GI50 (HCT-116 colon) 0.0265 µM and 0.0182 µM | GI50 (KM12 colon) 0.0456 µM and 0.036 µM | GI50 (SW-620 colon) < 0.01 µM and 0.00315 µM | GI50 (LOX IMVI melanoma) < 0.0127 µM and 0.0397 µM | GI50 (SK-MEL-2 melanoma) < 0.01 µM and 0.00337 µM | GI50 (EKVX NSCLC) 0.101 µM and 0.0891 µM | GI50 (UACC-257 melanoma) < 0.01 µM and 0.00154 µM | GI50 (A498 renal) < 0.01 µM and 0.00351 µM | GI50 (RXF 393 renal) 0.363 µM and 0.342 µM | GI50 (HL-60(TB) leukemia) < 0.01 µM and 0.0166 µM | GI50 (COLO 205 colon) < 0.01 µM and 0.00143 µM | GI50 (MDA-MB-435) < 0.01 µM and 0.00416 µM | GI50 (MALME-3M melanoma) < 0.01 µM | GI50 (UACC-62 melanoma) < 0.01 µM and 0.00155 µM | GI50 (SK-MEL-28 melanoma) < 0.01 µM and 0.00192 µM | GI50 (TK-10 renal) 0.0314 µM and 0.0174 µM | GI50 (UO-31 renal) 0.302 µM and 0.0357 µM | GI50 (HOP-92 NSCLC) 0.0377 µM and 0.0201 µM | GI50 (M14 melanoma) < 0.01 µM and 0.00132 µM | GI50 (NCI-H23 lung) 0.0188 µM and 0.0537 µM | GI50 (HT29 colon) < 0.01 µM and 0.00291 µM
> 72.2 µM: TGI (UO-31 renal)
> 31.4 µM: TGI (BT-549 breast)
43.4 µM and > 10 µM: TGI (RXF 393 renal)
0.0647 µM and 0.0694 µM: TGI (A498 renal)
